The supplement of paper PMC12076712

Experiments:
Experiment in all cases: pIC50, kinobeads binding competition
UniProt P45984 = molecular target: UniProt P45984
Summary of the method: (§1)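 Jurkat cells were exposed alive to nine compound concentrations (top 30 μM, 1:4 steps) or vehicle for 60 min at 37 °C and then lysed. In a second format, nine concentrations (top 30 μM, 1:5 steps) were incubated for 60 min at 4 °C with Jurkat lysate or with a 1:1:1:1 lysate mix of HEK293, K-562, HepG2 and placenta. Proteins captured on Kinobeads were digested and quantified by TMT10 LC-MS/MS. pIC50 values were derived from logistic dose-response fits (R drc package) of fold changes relative to vehicle, in biological duplicates.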

KSR1 = molecular target: T1, KSR1 (UniProt Q8IVT5)
T1 sequence (whole entry): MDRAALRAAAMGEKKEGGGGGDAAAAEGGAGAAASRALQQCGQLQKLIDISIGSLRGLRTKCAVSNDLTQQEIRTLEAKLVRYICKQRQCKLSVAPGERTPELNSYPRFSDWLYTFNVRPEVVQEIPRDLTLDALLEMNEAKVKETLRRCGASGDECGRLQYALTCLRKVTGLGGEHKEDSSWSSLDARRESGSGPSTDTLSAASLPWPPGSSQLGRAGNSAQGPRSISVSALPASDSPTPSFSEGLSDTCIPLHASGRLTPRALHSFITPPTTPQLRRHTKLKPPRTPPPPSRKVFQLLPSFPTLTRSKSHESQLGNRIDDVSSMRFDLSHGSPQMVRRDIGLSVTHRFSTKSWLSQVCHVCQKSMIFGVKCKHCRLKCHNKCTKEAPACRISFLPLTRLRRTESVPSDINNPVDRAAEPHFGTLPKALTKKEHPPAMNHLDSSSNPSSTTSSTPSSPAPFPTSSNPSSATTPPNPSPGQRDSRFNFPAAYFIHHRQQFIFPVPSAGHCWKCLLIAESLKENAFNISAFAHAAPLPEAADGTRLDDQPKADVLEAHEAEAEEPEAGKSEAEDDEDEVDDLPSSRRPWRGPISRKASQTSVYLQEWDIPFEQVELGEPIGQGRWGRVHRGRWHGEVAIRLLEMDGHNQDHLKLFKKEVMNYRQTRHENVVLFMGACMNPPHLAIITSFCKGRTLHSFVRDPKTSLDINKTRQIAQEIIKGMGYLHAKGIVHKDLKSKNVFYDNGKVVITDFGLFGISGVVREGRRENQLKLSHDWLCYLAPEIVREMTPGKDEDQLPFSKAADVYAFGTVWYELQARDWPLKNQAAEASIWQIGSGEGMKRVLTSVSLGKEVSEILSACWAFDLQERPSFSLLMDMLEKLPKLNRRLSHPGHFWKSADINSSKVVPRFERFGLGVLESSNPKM
Summary of the method: as §1

UniProt P00519 = molecular target: UniProt P00519
Sequence of UniProt P00519 (P00519 whole entry): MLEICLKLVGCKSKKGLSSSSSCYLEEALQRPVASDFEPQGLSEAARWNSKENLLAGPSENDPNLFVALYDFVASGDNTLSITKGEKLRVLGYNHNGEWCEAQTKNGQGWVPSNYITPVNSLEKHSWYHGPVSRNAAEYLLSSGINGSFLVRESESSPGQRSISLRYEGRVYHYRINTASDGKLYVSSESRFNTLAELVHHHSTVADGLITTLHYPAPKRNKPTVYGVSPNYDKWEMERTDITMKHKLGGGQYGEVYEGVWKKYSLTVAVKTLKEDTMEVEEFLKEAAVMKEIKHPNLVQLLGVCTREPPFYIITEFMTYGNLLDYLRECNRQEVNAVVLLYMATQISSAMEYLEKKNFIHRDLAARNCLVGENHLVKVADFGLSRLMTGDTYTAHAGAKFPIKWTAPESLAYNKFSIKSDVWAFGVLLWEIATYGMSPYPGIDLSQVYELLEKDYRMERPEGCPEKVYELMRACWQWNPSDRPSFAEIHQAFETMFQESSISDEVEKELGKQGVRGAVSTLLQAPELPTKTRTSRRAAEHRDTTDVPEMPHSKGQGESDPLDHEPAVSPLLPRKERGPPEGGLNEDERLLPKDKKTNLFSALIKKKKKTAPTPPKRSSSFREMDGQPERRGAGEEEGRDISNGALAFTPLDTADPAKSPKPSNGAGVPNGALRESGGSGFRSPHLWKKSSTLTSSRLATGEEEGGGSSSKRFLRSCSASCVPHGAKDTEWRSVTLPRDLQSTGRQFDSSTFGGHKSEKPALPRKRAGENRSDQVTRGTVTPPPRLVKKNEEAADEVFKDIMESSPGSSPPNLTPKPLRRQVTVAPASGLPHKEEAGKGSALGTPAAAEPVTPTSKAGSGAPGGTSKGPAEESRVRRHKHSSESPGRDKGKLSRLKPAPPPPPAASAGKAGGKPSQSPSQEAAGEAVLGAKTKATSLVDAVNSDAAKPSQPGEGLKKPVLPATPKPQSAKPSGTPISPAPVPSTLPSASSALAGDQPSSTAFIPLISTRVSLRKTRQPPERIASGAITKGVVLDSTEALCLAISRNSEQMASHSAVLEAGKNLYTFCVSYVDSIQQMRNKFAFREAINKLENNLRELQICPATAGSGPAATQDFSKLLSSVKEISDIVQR
Summary of the method: as §1

UniProt Q96D53 = molecular target: T2, UniProt Q96D53
T2 sequence (whole entry): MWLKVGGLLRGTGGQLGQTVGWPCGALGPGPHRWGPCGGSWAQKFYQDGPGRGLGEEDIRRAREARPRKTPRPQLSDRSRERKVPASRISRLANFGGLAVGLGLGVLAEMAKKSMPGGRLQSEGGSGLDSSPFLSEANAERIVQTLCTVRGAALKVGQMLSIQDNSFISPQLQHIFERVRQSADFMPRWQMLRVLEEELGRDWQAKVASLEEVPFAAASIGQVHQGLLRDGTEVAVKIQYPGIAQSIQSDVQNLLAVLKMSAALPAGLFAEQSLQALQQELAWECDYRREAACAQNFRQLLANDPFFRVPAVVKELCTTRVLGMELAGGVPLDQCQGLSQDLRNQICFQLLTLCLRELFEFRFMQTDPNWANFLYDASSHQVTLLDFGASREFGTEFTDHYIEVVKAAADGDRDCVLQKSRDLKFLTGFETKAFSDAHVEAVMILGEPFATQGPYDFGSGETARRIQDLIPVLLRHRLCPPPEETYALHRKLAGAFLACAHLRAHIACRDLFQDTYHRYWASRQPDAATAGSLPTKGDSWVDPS
Summary of the method: as §1

CSF1R = CSF1R (UniProt P07333); settings: cell material: Lysate mix
Summary of the method: as §1

CLK3 = CLK3 (UniProt P49761)
Summary of the method: as §1

UniProt P80192 = molecular target: UniProt P80192
Sequence of UniProt P80192 (P80192 whole entry, looked up): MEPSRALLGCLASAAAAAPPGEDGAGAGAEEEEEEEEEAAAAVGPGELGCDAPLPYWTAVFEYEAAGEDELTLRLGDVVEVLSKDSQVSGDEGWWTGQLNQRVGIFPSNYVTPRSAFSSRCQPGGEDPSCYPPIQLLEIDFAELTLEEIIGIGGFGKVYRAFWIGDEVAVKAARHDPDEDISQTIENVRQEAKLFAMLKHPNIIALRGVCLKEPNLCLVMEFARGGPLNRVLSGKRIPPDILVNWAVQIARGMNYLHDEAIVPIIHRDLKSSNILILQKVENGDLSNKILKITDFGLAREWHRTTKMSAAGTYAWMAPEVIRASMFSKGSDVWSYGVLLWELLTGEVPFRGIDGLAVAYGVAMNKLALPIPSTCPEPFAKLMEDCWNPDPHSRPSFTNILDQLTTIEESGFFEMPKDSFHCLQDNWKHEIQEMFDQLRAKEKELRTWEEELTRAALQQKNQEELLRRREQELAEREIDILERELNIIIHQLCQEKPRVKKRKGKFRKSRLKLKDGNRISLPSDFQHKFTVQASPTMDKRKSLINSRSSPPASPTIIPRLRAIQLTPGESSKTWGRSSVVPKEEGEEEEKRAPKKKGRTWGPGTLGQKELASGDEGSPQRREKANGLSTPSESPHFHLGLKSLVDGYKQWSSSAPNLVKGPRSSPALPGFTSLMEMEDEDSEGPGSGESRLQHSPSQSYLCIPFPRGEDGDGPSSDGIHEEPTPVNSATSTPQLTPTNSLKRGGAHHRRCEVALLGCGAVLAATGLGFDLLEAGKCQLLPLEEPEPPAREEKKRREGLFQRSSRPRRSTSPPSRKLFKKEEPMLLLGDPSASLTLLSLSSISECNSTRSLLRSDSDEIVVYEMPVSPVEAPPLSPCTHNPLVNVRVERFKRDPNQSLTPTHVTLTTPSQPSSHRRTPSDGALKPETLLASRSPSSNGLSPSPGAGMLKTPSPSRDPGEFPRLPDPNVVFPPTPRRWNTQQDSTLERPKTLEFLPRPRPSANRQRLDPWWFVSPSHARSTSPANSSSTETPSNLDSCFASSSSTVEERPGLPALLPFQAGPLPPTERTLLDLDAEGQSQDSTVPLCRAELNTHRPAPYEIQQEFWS
Summary of the method: as §1

ILK = molecular target: T3, ILK (UniProt Q13418)
T3 sequence (whole entry): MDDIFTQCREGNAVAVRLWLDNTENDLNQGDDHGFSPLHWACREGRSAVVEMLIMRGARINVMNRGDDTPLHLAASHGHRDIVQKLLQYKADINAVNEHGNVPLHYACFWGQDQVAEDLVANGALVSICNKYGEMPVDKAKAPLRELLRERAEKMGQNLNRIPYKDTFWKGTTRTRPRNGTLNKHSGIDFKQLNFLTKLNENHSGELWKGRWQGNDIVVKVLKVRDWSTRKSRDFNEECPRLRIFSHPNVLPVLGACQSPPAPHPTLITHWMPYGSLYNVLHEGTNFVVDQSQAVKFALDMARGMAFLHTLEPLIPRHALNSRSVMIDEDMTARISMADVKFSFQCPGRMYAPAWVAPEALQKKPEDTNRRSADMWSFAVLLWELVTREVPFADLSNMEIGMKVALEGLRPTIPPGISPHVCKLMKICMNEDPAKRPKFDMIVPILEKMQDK
Summary of the method: as §1

DAPK1 = DAPK1 (UniProt P53355); settings: cell material: Lysate mix
Sequence of DAPK1 (P53355 whole entry, looked up): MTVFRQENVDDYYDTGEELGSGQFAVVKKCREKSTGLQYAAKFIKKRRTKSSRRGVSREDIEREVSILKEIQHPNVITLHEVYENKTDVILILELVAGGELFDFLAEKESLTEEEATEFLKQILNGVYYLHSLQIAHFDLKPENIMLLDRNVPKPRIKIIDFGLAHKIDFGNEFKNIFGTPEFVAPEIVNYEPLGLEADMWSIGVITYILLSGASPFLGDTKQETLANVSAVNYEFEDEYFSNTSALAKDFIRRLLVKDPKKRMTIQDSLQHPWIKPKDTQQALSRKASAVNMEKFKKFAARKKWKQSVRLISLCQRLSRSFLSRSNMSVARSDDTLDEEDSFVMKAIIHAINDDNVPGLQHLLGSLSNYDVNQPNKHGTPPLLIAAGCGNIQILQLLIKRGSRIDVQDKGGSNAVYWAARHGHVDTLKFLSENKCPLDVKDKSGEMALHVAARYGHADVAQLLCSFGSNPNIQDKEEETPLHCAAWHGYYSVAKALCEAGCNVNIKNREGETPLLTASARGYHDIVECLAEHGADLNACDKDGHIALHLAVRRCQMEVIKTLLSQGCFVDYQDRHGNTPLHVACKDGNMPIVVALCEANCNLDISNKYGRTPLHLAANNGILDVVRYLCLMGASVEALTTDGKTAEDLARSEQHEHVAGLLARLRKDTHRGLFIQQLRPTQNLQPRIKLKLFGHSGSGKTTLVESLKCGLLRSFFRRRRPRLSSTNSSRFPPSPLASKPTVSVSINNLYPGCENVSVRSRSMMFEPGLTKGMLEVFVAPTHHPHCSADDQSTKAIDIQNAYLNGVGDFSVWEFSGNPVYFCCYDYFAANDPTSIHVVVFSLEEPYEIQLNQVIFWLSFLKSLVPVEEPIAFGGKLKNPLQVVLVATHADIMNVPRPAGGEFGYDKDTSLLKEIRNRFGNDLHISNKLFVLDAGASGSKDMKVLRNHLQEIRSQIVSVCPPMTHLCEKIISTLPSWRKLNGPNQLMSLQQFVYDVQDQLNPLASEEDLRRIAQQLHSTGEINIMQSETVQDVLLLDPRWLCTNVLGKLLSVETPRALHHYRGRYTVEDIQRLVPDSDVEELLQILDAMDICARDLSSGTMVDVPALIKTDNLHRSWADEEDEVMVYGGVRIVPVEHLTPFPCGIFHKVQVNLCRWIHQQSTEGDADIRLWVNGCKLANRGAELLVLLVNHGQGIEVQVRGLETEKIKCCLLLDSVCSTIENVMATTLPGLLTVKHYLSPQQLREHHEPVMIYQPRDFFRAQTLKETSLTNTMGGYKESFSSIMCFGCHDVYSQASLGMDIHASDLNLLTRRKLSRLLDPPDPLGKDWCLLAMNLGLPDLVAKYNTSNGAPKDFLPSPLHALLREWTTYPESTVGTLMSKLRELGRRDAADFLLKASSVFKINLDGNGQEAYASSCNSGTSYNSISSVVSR
Summary of the method: as §1

UniProt Q00537 = molecular target: UniProt Q00537
Summary of the method: as §1

AKT1 = AKT1 (UniProt P31749)
Summary of the method: as §1

RIPK3 = RIPK3 (UniProt Q9Y572)
Summary of the method: as §1

BLK = BLK (UniProt P51451)
Sequence of BLK (P51451 whole entry, looked up): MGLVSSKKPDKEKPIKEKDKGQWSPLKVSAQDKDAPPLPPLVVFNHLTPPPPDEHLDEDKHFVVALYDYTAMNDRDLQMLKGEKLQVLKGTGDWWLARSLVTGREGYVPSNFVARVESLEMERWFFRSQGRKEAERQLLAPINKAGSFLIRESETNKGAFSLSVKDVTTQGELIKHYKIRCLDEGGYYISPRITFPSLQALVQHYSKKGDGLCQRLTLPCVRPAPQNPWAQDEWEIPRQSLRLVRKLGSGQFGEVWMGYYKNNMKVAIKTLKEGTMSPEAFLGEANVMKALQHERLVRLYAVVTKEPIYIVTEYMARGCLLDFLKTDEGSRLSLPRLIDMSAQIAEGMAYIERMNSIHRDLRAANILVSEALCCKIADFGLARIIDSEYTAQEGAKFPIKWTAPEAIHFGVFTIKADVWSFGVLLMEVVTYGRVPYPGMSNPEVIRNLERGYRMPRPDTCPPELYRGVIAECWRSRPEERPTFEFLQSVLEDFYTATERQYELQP
Summary of the method: as §1

PRKCH = PRKCH (UniProt P24723)
Summary of the method: as §1

RAF1 = RAF1 (UniProt P04049)
Sequence of RAF1 (P04049 whole entry): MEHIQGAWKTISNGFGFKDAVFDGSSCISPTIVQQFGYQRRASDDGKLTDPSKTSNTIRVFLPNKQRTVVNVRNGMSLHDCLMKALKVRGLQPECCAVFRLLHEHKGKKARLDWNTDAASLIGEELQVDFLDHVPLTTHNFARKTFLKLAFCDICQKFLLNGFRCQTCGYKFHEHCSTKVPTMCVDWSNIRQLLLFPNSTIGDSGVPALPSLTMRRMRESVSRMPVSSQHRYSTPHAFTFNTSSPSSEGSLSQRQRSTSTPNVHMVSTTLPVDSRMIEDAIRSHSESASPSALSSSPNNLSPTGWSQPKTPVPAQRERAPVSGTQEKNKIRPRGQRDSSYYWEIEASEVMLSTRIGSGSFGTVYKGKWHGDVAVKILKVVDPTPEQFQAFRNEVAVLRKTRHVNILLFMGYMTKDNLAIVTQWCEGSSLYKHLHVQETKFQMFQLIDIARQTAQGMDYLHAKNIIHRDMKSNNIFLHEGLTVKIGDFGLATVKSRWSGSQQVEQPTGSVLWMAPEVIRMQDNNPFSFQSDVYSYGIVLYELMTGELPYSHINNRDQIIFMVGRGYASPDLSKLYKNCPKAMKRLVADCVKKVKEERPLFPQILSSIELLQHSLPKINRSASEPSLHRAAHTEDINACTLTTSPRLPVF
Summary of the method: as §1

PAK1 = PAK1 (UniProt Q13153); settings: cell material: Jurkat cells
Summary of the method: as §1

Row | SMILES | pIC50 (UniProt P45984; cell material: Lysate mix) | pIC50 (KSR1; cell material: Lysate mix) | pIC50 (UniProt P00519; cell material: Lysate mix) | pIC50 (UniProt Q96D53; cell material: Lysate mix) | pIC50 (CSF1R) | pIC50 (CLK3; cell material: Lysate mix) | pIC50 (UniProt P80192; cell material: Lysate mix) | pIC50 (ILK; cell material: Lysate mix) | pIC50 (DAPK1) | pIC50 (UniProt Q00537; cell material: Lysate mix) | pIC50 (AKT1; cell material: Jurkat cells) | pIC50 (RIPK3; cell material: Jurkat cells) | pIC50 (RIPK3; cell material: Jurkat lysate) | pIC50 (UniProt P80192; cell material: Jurkat cells) | pIC50 (UniProt P80192; cell material: Jurkat lysate) | pIC50 (ILK; cell material: Jurkat cells) | pIC50 (ILK; cell material: Jurkat lysate) | pIC50 (UniProt P45984; cell material: Jurkat cells) | pIC50 (UniProt P45984; cell material: Jurkat lysate) | pIC50 (UniProt P00519; cell material: Jurkat cells) | pIC50 (UniProt P00519; cell material: Jurkat lysate) | pIC50 (BLK; cell material: Jurkat cells) | pIC50 (BLK; cell material: Jurkat lysate) | pIC50 (UniProt Q96D53; cell material: Jurkat cells) | pIC50 (PRKCH; cell material: Jurkat lysate) | pIC50 (RAF1; cell material: Jurkat cells) | pIC50 (PAK1) | pIC50 (CLK3; cell material: Jurkat lysate) | pIC50 (UniProt Q00537; cell material: Jurkat cells) | pIC50 (UniProt Q00537; cell material: Jurkat lysate) | pIC50 (AKT1; cell material: Jurkat lysate) | pIC50 (KSR1; cell material: Jurkat cells) | pIC50 (KSR1; cell material: Jurkat lysate) | pIC50 (PRKCH; cell material: Jurkat cells) | pIC50 (RAF1; cell material: Jurkat lysate)
1 | CCNC(=O)c1cc(Nc2cc(C)[nH]n2)nc(N2CCN(Cc3ccc(S(=O)(=O)F)cc3)CC2)n1 | 5.2 | < 4.52 | < 4.52 | < 4.52 | < 4.52 | < 4.52 | – | – | – | – | – | – | – | – | – | – | – | – | – | – | – | – | – | – | – | – | – | – | – | – | – | – | – | – | –
2 | CCNC(=O)c1cc(Nc2cc(C3CC3)[nH]n2)nc(N2CCN(Cc3ccc(S(=O)(=O)F)cc3)CC2)n1 | 5.62 | – | – | – | < 4.52 | 4.85 | 5.78 | < 4.52 | 4.6 | 5.52 | – | – | – | – | – | – | – | – | – | – | – | – | – | – | – | – | – | – | – | – | – | – | – | – | –
3 | Cc1cc(Nc2cc(C(=O)NCCNC(=O)OC3CC/C=C/CCC3)nc(N3CCN(Cc4ccc(S(=O)(=O)F)cc4)CC3)n2)n[nH]1 (configuration not stated) | – | < 4.52 | < 4.52 | – | < 4.52 | – | < 4.52 | < 4.52 | < 4.52 | < 4.52 | – | – | – | – | – | – | – | – | – | – | – | – | – | – | – | – | – | – | – | – | – | – | – | – | –
4 | C#CCNC(=O)c1cc(Nc2cc(C3CC3)[nH]n2)nc(N2CCN(Cc3ccc(S(=O)(=O)F)cc3)CC2)n1 | 5.72 | – | 4.67 | – | < 4.52 | 5.15 | 6.2 | – | < 4.52 | 5.7 | 4.92 | 4.85 | 4.67 | 6.42 | 5.9 | 5.41 | < 4.52 | 5.92 | 5.22 | 5.64 | 4.67 | 6.82 | 6.51 | < 4.52 | < 4.52 | < 4.52 | < 4.52 | < 4.52 | 6.39 | 5.11 | – | – | – | – | –
5 | C#CCNC(=O)c1cc(Nc2cc(C)[nH]n2)nc(N2CCN(Cc3ccc(S(=O)(=O)F)cc3)CC2)n1 | 5.34 | < 4.52 | < 4.52 | – | – | < 4.52 | – | < 4.52 | < 4.52 | < 4.52 | – | – | – | – | – | – | – | – | – | – | – | – | – | – | – | – | – | – | – | – | – | – | – | – | –
6 | O=C(NCCNC(=O)c1cc(Nc2cc(C3CC3)[nH]n2)nc(N2CCN(Cc3ccc(S(=O)(=O)F)cc3)CC2)n1)OC1CC/C=C/CCC1 (configuration not stated) | – | < 4.52 | < 4.52 | < 4.52 | < 4.52 | < 4.52 | < 4.52 | < 4.52 | < 4.52 | < 4.52 | < 4.52 | – | < 4.52 | 6.19 | < 4.52 | < 4.52 | < 4.52 | 5.7 | < 4.52 | 4.86 | < 4.52 | 6.73 | 5.1 | < 4.52 | < 4.52 | < 4.52 | < 4.52 | < 4.52 | 5.68 | < 4.52 | < 4.52 | < 4.52 | < 4.52 | < 4.52 | < 4.52
